Measured values as given in patent US20220098184A1, “SOLID DISPERSION FORMULATIONS OF AN FXR AGONIST” (Terms Pharmaceuticals, Inc., priority 2020, published 2022).

Key:
[1] = Phase 1 randomized, open-label study in healthy subjects (PK, safety and tolerability); format: in vivo, human; conditions: all treatment groups
Method: A Phase 1 randomized, open-label study was conducted in 16 healthy subjects. PK samples of Compound I were obtained up to 72 hours after single oral administration of: 1) 5-mg strength and 25-mg strength tablets (prepared according to Example 3) in 16 fasted subjects; 2) 25-mg strength capsule (containing 25 mg Compound I not in a solid dispersion) in 8 fasted subjects; and 3) 5-mg strength tablet (prepared according to Example 3) in 8 subjects after a high-fat, high calorie meal. Safety and tolerability of the tablets and capsule were also assessed.

[2] = BCS classification / aqueous solubility; format: physicochemical
[3] = Solubility study in phosphate buffer (pH=6.8), agitated at 37° C., filtrate measured by UV-vis; format: physicochemical; conditions: phosphate buffer pH 6.8, 37° C.
Method: Compound I, Compound U/Kollidon® VA 64 solid dispersion prepared according to Example 1, and Compound U/Soluplus® solid dispersion prepared according to Example 1 were dissolved in phosphate buffer (pH=6.8) and the resulting mixtures were agitated at 37° C. Samples were taken at 15 minutes, 30 minutes, 60 minutes, 120 minutes, 4 hours, 8 hours, and 24 hours.

[4] = Tissue distribution of Compound I (liver vs other tissues); format: in vivo; conditions: liver relative to plasma, kidney, lungs, heart, and skin, read-out: Concentration in the liver relative to other tissues

- Aqueous solubility (in words) [2]: low aqueous solubility
- BCS class [2]: BCS class II
- Solubility in phosphate buffer (in words) [3]: low solubility
- Concentration of Compound I ([3]; 15 min): 86 ng/mL
- Concentration of Compound I ([3]; 30 min): 166 ng/mL
- Concentration of Compound I ([3]; 60 min): 172 ng/mL
- Concentration of Compound I ([3]; 120 min): 188 ng/mL
- Concentration of Compound I ([3]; 4 hrs): 166 ng/mL
- Concentration of Compound I ([3]; 8 hrs): 207 ng/mL
- Concentration of Compound I ([3]; 24 hrs): 250 ng/mL
- Kp [4]: ~20
SMILES: Cn1cc(C(=O)O)c2ccc(N3CCC(OCc4c(-c5c(Cl)cccc5Cl)noc4C4CC4)CC3)cc21 [Compound I, 6-(4-((5-cyclopropyl-3-(2,6-dichlorophenyl)isoxazol-4-yl)methoxy)piperidin-1-yl)-1-methyl-1H-indole-3-carboxylic acid]
- Safety and tolerability [1]: safe and well tolerated
